The values below come from US9427428B2, “Benzimidazole-imidazole derivatives” (Janssen Sciences Ireland UC, priority 2009, dated 2016).

pEC50: −log10 of the molar value.

What all share (type): cell-based
The subject of series [1] is HCV type 1b replicon (Huh-7 luc/neo cells). As to the kind of experiment: HCV replicon assay, stable transfection (Huh-Luc, luciferase). The settings on record: Hepatitis C virus, Huh-7, 72 h, three days incubation, average of all tests. From the text: The compounds of formula (I) were examined for inhibitory activity in the HCV replicon. This cellular assay is based on a bicistronic expression construct, as described by Lohmann et al. (Science (1999) 285: 110-113; Journal of Virology (2003) 77: 3007-3019) with modifications described by Krieger et al. (Journal of Virology (2001) 75: 4614-4624), and Lohmann et al. (Journal of Virology (2003) 77: 3007-3019) for genotype 1b and by Yi et al. (Journal of Virology (2004) 78: 7904-7915) for genotype 1a, in a multi-target screening strategy.
The method was as follows. The assay utilized the stably transfected cell line Huh-7 luc/neo (hereafter referred to as Huh-Luc). This cell line harbors an RNA encoding a bicistronic expression construct comprising the wild type NS3-NS5B regions of HCV type 1b translated from an Internal Ribosome Entry Site (IRES) from encephalomyocarditis virus (EMCV), preceded by a reporter portion (FfL-luciferase), and a selectable marker portion (neoR, neomycine phosphotransferase). The construct is flanked by 5′ and 3′ NTRs (non-translated regions) from HCV type 1b. Continued culture of the replicon cells in the presence of G418 (neoR) is dependent on the replication of the HCV RNA. The stably transfected replicon cells that replicate HCV RNA autonomously and to high levels, encoding inter alia luciferase, were used for screening the antiviral compounds.
The replicon cells were plated in 384 well plates in the presence of the test and control compounds which were added in various concentrations. Following an incubation of three days, HCV replication was measured by assaying luciferase activity (using standard luciferase assay substrates and reagents and a Perkin Elmer ViewLux™ ultraHTS microplate imager). Replicon cells in the control cultures have high luciferase expression in the absence of any inhibitor. The inhibitory activity of the compound was monitored on the Huh-Luc cells, enabling a dose-response curve for each test compound. EC50 values were then calculated, which represent the amount of compound required to decrease the level of detected luciferase activity by 50%, or more specifically, to reduce the ability of the genetically linked HCV replicon RNA to replicate.
Where a compound of formula (I) was tested more than once in the replicon assay, the average of all test results is given in this Table 2.

The test system of series [2] is HCV genotype 1b Con1 replicon (Huh-7 lunet cells). As to the kind of experiment: HCV replicon assay, transient transfection, genotype 1b. The settings on record: Hepatitis C virus, 48 h, genotype 1b Con1, two days incubation, luciferase. The source says: (§1) In a transient set-up, a Huh-7 lunet hepatoma cell line was transiently transfected with an autonomously replicating RNA encoding a bi-cistronic expression construct. This construct comprises a firefly luciferase reporter gene preceding the NS3-NS5B subgenomic region of HCV (genotype 1a H77 or 1b Con1). Translation of the HCV subgenomic region is mediated by an internal ribosome entry site of encephalomyocarditis virus. The construct is furthermore flanked by 5′ and 3′ untranslated regions of HCV (genotype 1a H77 or 1b Con 1, respectively), which allow for replication of the RNA.
(§2) Cells were plated in 384 well plates in the presence of test and control compounds, which were added in various concentrations. Following an incubation of two days, replication of the HCV subgenomic replicon RNA was measured by assaying luciferase activity (using standard luciferase assay substrates and reagents and a Perkin Elmer ViewLux™ ultraHTS microplate imager). HCV subgenomic replicon containing cells in the control cultures have high luciferase expression in the absence of any inhibitor. The inhibitory activity of the compound was monitored, enabling a dose-response curve for each test compound. EC50 values were then calculated, which represent the amount of compound required to decrease the level of detected luciferase activity by 50%, or more specifically, to reduce the ability of the genetically linked HCV subgenomic RNA to replicate.
(§3) Where a compound of formula (I) was tested more than once in the transient replicon assay, the average of all test results is given in Table 3.
For orientation: Replicon systems follow genome replication, usually without infectious particles.

For series [3], the system named is HCV genotype 1a H77 replicon (Huh-7 lunet cells). As to the kind of experiment: HCV replicon assay, transient transfection, genotype 1a. To be noted: Hepatitis C virus, 48 h, genotype 1a H77, two days incubation, luciferase.
Excerpt: as §1, §2, §3

Series [4] can be described thus: Counterscreen MT4-LTR-Luc. To be noted: human. The source says: (§4) Counterscreen cell lines included a Huh-7 hepatoma cell line containing a human cytomegalovirus major immediate-early promoter-Luc construct (Huh7-CMV-Luc) and an MT4 T-cell line containing a long terminal repeat-Luc reporter (MT4-LTR-Luc).
On the technique in general: Counterscreens check selectivity or assay interference.

Series [5] is described as follows: Counterscreen Huh7-CMV-Luc. To be noted: human.
Excerpt: as §4

The subject of series [6] is HCV genotype 1b replicon NS5A Y93H. As to the kind of experiment: Transient HCV 1b replicon, NS5A mutant Y93H. To be noted: Hepatitis C virus, read-out: EC50 Y93H.
Excerpt: as §1
(§5) In addition to the wild-type constructs, site-directed mutations were introduced into the transient HCV genotype 1b replicon in the gene encoding for the non-structural protein 5A (NS5A). More precisely, amino acid residues 28, 30, 31 and 93 in NS5A were independently altered.
as §2

Series [7] deals with HCV genotype 1b replicon NS5A L28T. The series is described as follows: Transient HCV 1b replicon, NS5A mutant L28T. To be noted: Hepatitis C virus, read-out: EC50 L28T.
Excerpt: as §1, §5, §2

Series [8] concerns HCV genotype 1b replicon NS5A R30H. The series is described as follows: Transient HCV 1b replicon, NS5A mutant R30H. The settings on record: Hepatitis C virus, read-out: EC50 R30H.
Excerpt: as §1, §5, §2

Series [9] has as its system HCV genotype 1b replicon NS5A L31F. As to the kind of experiment: Transient HCV 1b replicon, NS5A mutant L31F. To be noted: Hepatitis C virus, read-out: EC50 L31F.
Excerpt: as §1, §5, §2

Series [10] concerns HCV genotype 1b replicon NS5A L31V. As to the kind of experiment: Transient HCV 1b replicon, NS5A mutant L31V. The settings on record: Hepatitis C virus, read-out: EC50 L31V.
Excerpt: as §1, §5, §2

Series [11] has as its system HCV genotype 1b replicon NS5A Y93C. As to the kind of experiment: Transient HCV 1b replicon, NS5A mutant Y93C. To be noted: Hepatitis C virus, read-out: EC50 Y93C.
Excerpt: as §1, §5, §2

As a reminder, the pEC50 is the negative decadic logarithm of the EC50, by convention in mol/L. In general, CC50 refers to the concentration at which the toxic effect on the cells reaches its halfway point. A lower CC50 goes with harm at low concentration. Take `COC(=O)NC(C(=O)N1CCC[C@H]1c1ncc(-c2ccc3cc(-c4ccc5nc([C@@H]6CCCN6C(=O)C(NC(=O)OC)C6CCOCC6)[nH]c5c4)ccc3c2)[nH]1)C1CCOCC1` (mixture of isomers) [Compound 12]: the pEC50 in [1] is 10.10; in [2], 9.96; in [3], 9.57; in series [6] it was 9.56. Moreover, the half-maximal cytotoxic concentration (CC50) in [4] and in [5] was greater than 984 nM each time.

Turning to `COC(=O)NC(C(=O)N1CCC[C@H]1c1ncc(-c2ccc3cc(-c4ccc5nc([C@@H]6CCCN6C(=O)C(NC(=O)OC)c6ccccc6)[nH]c5c4)ccc3c2)[nH]1)c1ccccc1` (mixture of isomers) [Compound 14], the pEC50 was 11.40 in series [1], 11.40 in series [2], 9.08 in [3] and 10.03 in series [6]. The CC50 in [4] and in series [5] was greater than 984 nM each time.

On to `COC(=O)N[C@H](C(=O)N1CCC[C@H]1c1ncc(-c2ccc(-c3ccc4nc([C@@H]5CCCN5C(=O)[C@@H](NC(=O)OC)C(C)C)[nH]c4c3)cc2)[nH]1)C(C)C` [Compound 1], for which the pEC50 in series [1] was 10.24; in series [2], 10.24; in series [7] it was 8.38; in [8], 9.22; in series [9], 9.11; in series [10] it was 8.98. For the same compound, the values for the pEC50 in [6] and in [11] were 8.88 and 10.12, respectively. In series [4], this compound registered a CC50 greater than 984 nM.

Consider `COC(=O)N[C@H](C(=O)N1CCC[C@H]1c1ncc(-c2ccc(-c3ccc4nc([C@@H]5CCCN5C(=O)[C@@H](NC(=O)OC)[C@@H](C)OC)[nH]c4c3)cc2)[nH]1)[C@@H](C)OC` [Compound 2], for which the negative logarithm of the EC50 (pEC50) in series [1] was 9.27; in series [2], 9.04; in series [7], 8.04; in series [8], 8.57; in [9] it was 8.74; in series [10], 8.86. Also, the results for the pEC50 in [6] and in [11] were 8.54 and 9.18, respectively. The 50% cytotoxic concentration (CC50) in series [4] and in series [5] was greater than 984 nM throughout.

Take `COC(=O)N[C@H](C(=O)N1CCC[C@H]1c1ncc(-c2ccc3cc(-c4ccc5nc([C@@H]6CCCN6C(=O)[C@@H](NC(=O)OC)C6CC6)[nH]c5c4)ccc3c2)[nH]1)C1CC1` [Compound 5]: the values for the pEC50 in series [1], in series [2] and in series [6] were 10.41, 10.24 and 7.96, respectively. For the same compound, the half-maximal cytotoxic concentration (CC50) in series [4] and in series [5] was greater than 984 nM each time.

Regarding `COC(=O)N[C@H](C(=O)N1CCC[C@H]1c1ncc(-c2ccc3cc(-c4ccc5nc([C@@H]6CCCN6C(=O)[C@@H](NC(=O)OC)[C@@H](C)O)[nH]c5c4)ccc3c2)[nH]1)[C@@H](C)O` [Compound 6], the negative logarithm of the EC50 (pEC50) is 9.88 in [1], 9.85 in series [2], 9.74 in [3] and 8.99 in series [6]. Moreover, the CC50 in series [4] and in series [5] was greater than 984 nM in each case.

`COC(=O)N[C@@H](CC(C)C)C(=O)N1CCC[C@H]1c1ncc(-c2ccc3cc(-c4ccc5nc([C@@H]6CCCN6C(=O)[C@H](CC(C)C)NC(=O)OC)[nH]c5c4)ccc3c2)[nH]1` [Compound 7]: the negative logarithm of the EC50 (pEC50) is 11.30 in series [1], 11.52 in [2], 9.00 in [3] and 8.47 in series [6]. Further, the CC50 in series [4] and in series [5] was greater than 984 nM throughout.

With `COCC[C@H](NC(=O)OC)C(=O)N1CCC[C@H]1c1ncc(-c2ccc3cc(-c4ccc5nc([C@@H]6CCCN6C(=O)[C@H](CCOC)NC(=O)OC)[nH]c5c4)ccc3c2)[nH]1` [Compound 10], the pEC50 is 10.54 in [1], 10.24 in [2] and 8.99 in series [6]. The CC50 in [4] and in series [5] was greater than 984 nM throughout.

Take `COC(=O)N[C@H](C(=O)N1CCC[C@H]1c1ncc(-c2ccc3cc(-c4ccc5nc([C@@H]6CCCN6C(=O)[C@@H](NC(=O)OC)C6CCCC6)[nH]c5c4)ccc3c2)[nH]1)C1CCCC1` [Compound 15]: the pEC50 was 11.52 in series [1], 11.52 in series [2], 9.56 in series [3] and 8.92 in series [6]. The CC50 in [4] and in series [5] was greater than 984 nM in each case.

For `CC[C@@H](C)[C@H](NC(=O)OC)C(=O)N1CCC[C@H]1c1ncc(-c2ccc3cc(-c4ccc5nc([C@@H]6CCCN6C(=O)[C@@H](NC(=O)OC)[C@H](C)CC)[nH]c5c4)ccc3c2)[nH]1` [Compound 19], the pEC50 in [1] is 11.52; in series [2] it was 11.70; in [3], 9.33; in series [6], 8.29. For the same compound, the cytotoxic concentration (CC50) in series [4] and in series [5] was greater than 984 nM each time.

As for `CC[C@H](C)[C@H](NC(=O)OC)C(=O)N1CCC[C@H]1c1nc2cc(-c3ccc4cc(-c5cnc([C@H]6CCCN6C(=O)[C@@H](NC(=O)OC)[C@@H](C)OC)[nH]5)ccc4c3)ccc2[nH]1` [Compound 20], the pEC50 was 8.64 in series [1], 8.39 in series [2], 6.49 in series [3] and 6.47 in series [6]. Besides, the CC50 stood at 9410 nM in [4] and 8160 nM in series [5].

On to `CC[C@H](C)[C@H](NC(=O)OC)C(=O)N1CCC[C@@H]1c1ncc(-c2ccc3cc(-c4ccc5[nH]c([C@@H]6CCCN6C(=O)[C@@H](NC(=O)OC)[C@@H](C)OC)nc5c4)ccc3c2)[nH]1` [Compound 21], for which the pEC50 was 8.66 in series [1], 8.54 in series [2], 6.32 in [3] and 6.56 in series [6]. Besides, the CC50 in [4] is 9140 nM; in [5] it was 8160 nM.
